Columns and labels:
[1] = molecular target: BRD4 (BDI_K57-E168) (Homo sapiens (Human), UniProt O60885); experiment: TR-FRET bromodomain binding assay, BRD4 first bromodomain; details: His-tagged BD1, Alexa647-labeled probe 100 nM
Description: (§1) A time-resolved fluorescence resonance energy transfer (TR-FRET) assay was used to determine the affinities of compounds of the Examples listed in Table 1 for each bromodomain of BRD4. His-tagged first (BD1: amino acids K57-E168) and second (BD2: amino acids E352-E168) bromodomains of BRD4 were expressed and purified. An Alexa647-labeled BET-inhibitor was used as the fluorescent probe in the assay.
(§2) Compound dilution series were prepared in DMSO via a 3-fold serial dilution from 2.5 mM to 42 nM. Compounds were then diluted 6:100 in assay buffer (20 mM Sodium Phosphate, pH 6.0, 50 mM NaCl, 1 mM Ethylenediaminetetraacetic acid disodium salt dihydrate, 0.01% Triton X-100, 1 mM DL-Dithiothreitol) to yield 3× working solutions. Six microliters (μL) of the working solution was then transferred to white, low-volume assay plates (Costar #3673). A 1.5× assay mixture containing His-tagged bromodomain, Europium-conjugated anti-His antibody (Invitrogen PV5596) and the Alexa-647-conjugated probe molecule was also prepared. Twelve μL of this solution were added to the assay plate to reach a final volume of 18 μL. The final concentration of 1× assay buffer contains 2% DMSO, 50 μM-0.85 nM compound, 8 nM His-tagged bromodomain, 1 nM Europium-conjugated anti-His-tag antibody and 100 nM or 30 nM probe (for BDI or BDII, respectively). After a one-hour incubation at room temperature, TR-FRET ratios were determined using an Envision multilabel plate reader (Ex 340, Em […]).
(§3) TR-FRET data were normalized to the means of 24 no-compound controls (“high”) and 8 controls containing 1 μM un-labeled probe (“low”). Percent inhibition was plotted as a function of compound concentration and the data were fit with the 4 parameter logistic equation to obtain IC50s. Inhibition constants (Ki) were calculated from the IC50s, probe Kd and probe concentration. Typical Z′ values were between 0.65 and 0.75. The minimum significant ratio was determined to evaluate assay reproducibility (Eastwood et al., (2006) J Biomol Screen, 11: 253-261). The MSR was determined to be 2.03 for BDI and 1.93 for BDII, and a moving MSR (last six run MSR overtime) for both BDI and BDII was typically <3.

[2] = molecular target: BRD4 (BDII_E352-M457) (Homo sapiens (Human), UniProt O60885); experiment: TR-FRET bromodomain binding assay, BRD4 second bromodomain; details: His-tagged BD2, Alexa647-labeled probe 30 nM
Description: as §1, §2, §3

| Ki [1] [nM] | Ki [2] [nM] | SMILES |
| --- | --- | --- |
| 39.1 | 7.58 | CCS(=O)(=O)c1ccc(Oc2c(C)cccc2Cl)c(-c2cn(C)c(=O)c3[nH]c(C(=O)NCC(=O)N4CCCCC4)cc23)c1 [Example 122, 4-[2-(2-chloro-6-methylphenoxy)-5-(ethylsulfonyl)phenyl]-6-methyl-7-oxo-N-[2-oxo-2-(piperidin-1-yl)ethyl]-6,7-dihydro-1H-pyrrolo[2,3-c]pyridine-2-carboxamide] |
| 761 | 57.5 | CCNC(=O)c1cc2c(-c3cc(S(=O)(=O)CC)ccc3Oc3c(C)cccc3CN3CCCCC3)cn(C)c(=O)c2[nH]1 [Example 147, N-ethyl-4-{5-(ethylsulfonyl)-2-[2-methyl-6-(piperidin-1-ylmethyl)phenoxy]phenyl}-6-methyl-7-oxo-6,7-dihydro-1H-pyrrolo[2,3-c]pyridine-2-carboxamide] |
| 0.9 | 0.6 | CC(=O)Nc1ccc(CNc2cccc(Oc3ccc(S(C)(=O)=O)cc3-c3cn(C)c(=O)c4[nH]ccc34)c2)cc1 [Example 78, N-{4-[({3-[2-(6-methyl-7-oxo-6,7-dihydro-1H-pyrrolo[2,3-c]pyridin-4-yl)-4-(methylsulfonyl)phenoxy]phenyl}amino)methyl]phenyl}acetamide] |
| 22 | 16 | COCC(=O)N1CCC(Nc2ccc(S(C)(=O)=O)cc2-c2cn(C)c(=O)c3[nH]ccc23)CC1 [Example 95, 4-[2-{[1-(methoxyacetyl)piperidin-4-yl]amino}-5-(methylsulfonyl)phenyl]-6-methyl-1,6-dihydro-7H-pyrrolo[2,3-c]pyridin-7-one] |
| 5.4 | 10 | CSCCCN[C@H]1CC[C@H](Nc2ccc(S(C)(=O)=O)cc2-c2cn(C)c(=O)c3[nH]ccc23)CC1 [Example 112, 6-methyl-4-{2-[(trans-4-{[3-(methylsulfanyl)propyl]amino}cyclohexyl)amino]-5-(methylsulfonyl)phenyl}-1,6-dihydro-7H-pyrrolo[2,3-c]pyridin-7-one] |
| 2080 | 36 | CCNC(=O)c1cc2c(-c3cc(S(=O)(=O)CC)ccc3Oc3c(C)cccc3CN3CCCS3(=O)=O)cn(C)c(=O)c2[nH]1 [Example 152, 4-[2-{2-[(1,1-dioxido-1,2-thiazolidin-2-yl)methyl]-6-methylphenoxy}-5-(ethylsulfonyl)phenyl]-N-ethyl-6-methyl-7-oxo-6,7-dihydro-1H-pyrrolo[2,3-c]pyridine-2-carboxamide] |
| 4.6 | 4 | COc1ccc(S(=O)(=O)N2CCC(Nc3ccc(S(C)(=O)=O)cc3-c3cn(C)c(=O)c4[nH]ccc34)CC2)cc1 [Example 104, 4-[2-({1-[(4-methoxyphenyl)sulfonyl]piperidin-4-yl}amino)-5-(methylsulfonyl)phenyl]-6-methyl-1,6-dihydro-7H-pyrrolo[2,3-c]pyridin-7-one] |
| 1050 | 3.16 | CCNC(=O)c1cc2c(-c3ccc(C(=O)N(CCCN4CCOCC4)Cc4ccccc4)cc3Oc3c(C)cccc3C)cn(C)c(=O)c2[nH]1 [Example 161, 4-[4-{benzyl[3-(morpholin-4-yl)propyl]carbamoyl}-2-(2,6-dimethylphenoxy)phenyl]-N-ethyl-6-methyl-7-oxo-6,7-dihydro-1H-pyrrolo[2,3-c]pyridine-2-carboxamide] |
| 71 | 14 | CCS(=O)(=O)Nc1cc(-c2cn(C)c(=O)c3[nH]ccc23)c(Oc2ccc(F)cc2F)cc1CN1CCCC1c1ccccc1 (centres unmarked) [Example 14, N-{4-(2,4-difluorophenoxy)-5-(6-methyl-7-oxo-6,7-dihydro-1H-pyrrolo[2,3-c]pyridin-4-yl)-2-[(2-phenylpyrrolidin-1-yl)methyl]phenyl}ethanesulfonamide] |
| 8.5 | 2.9 | CN(C)c1cccc(CNc2cccc(Oc3ccc(S(C)(=O)=O)cc3-c3cn(C)c(=O)c4[nH]ccc34)c2)c1 [Example 75, 4-[2-(3-{[3-(dimethylamino)benzyl]amino}phenoxy)-5-(methylsulfonyl)phenyl]-6-methyl-1,6-dihydro-7H-pyrrolo[2,3-c]pyridin-7-one] |
| 15 | 3.6 | Cn1cc(-c2cc(S(C)(=O)=O)ccc2Oc2cccc(C(=O)NC[C@H]3CCCO3)c2)c2cc[nH]c2c1=O [Example 34, 3-[2-(6-methyl-7-oxo-6,7-dihydro-1H-pyrrolo[2,3-c]pyridin-4-yl)-4-(methylsulfonyl)phenoxy]-N-[(2R)-tetrahydrofuran-2-ylmethyl]benzamide] |
| 8.47 | 189 | CN1CCC(N2CCN(Cc3cc4c(-c5cc(S(C)(=O)=O)ccc5Oc5ccc(F)cc5F)cn(C)c(=O)c4[nH]3)CC2)CC1 [Example 125, 4-[2-(2,4-difluorophenoxy)-5-(methylsulfonyl)phenyl]-6-methyl-2-{[4-(1-methylpiperidin-4-yl)piperazin-1-yl]methyl}-1,6-dihydro-7H-pyrrolo[2,3-c]pyridin-7-one] |
| 6.09 | 3.39 | CCS(=O)(=O)c1ccc(Oc2ccc(F)cc2F)c(-c2cn(C)c(=O)c3[nH]c(-c4ccnn4-c4ccccc4)cc23)c1 [Example 117, 4-[2-(2,4-difluorophenoxy)-5-(ethylsulfonyl)phenyl]-6-methyl-2-(1-phenyl-1H-pyrazol-5-yl)-1,6-dihydro-7H-pyrrolo[2,3-c]pyridin-7-one] |
| 14 | 2 | CCS(=O)(=O)Nc1cc(-c2cn(C)c(=O)c3[nH]ccc23)c(Oc2ccc(F)cc2F)cc1CO [Example 6, N-[4-(2,4-difluorophenoxy)-2-(hydroxymethyl)-5-(6-methyl-7-oxo-6,7-dihydro-1H-pyrrolo[2,3-c]pyridin-4-yl)phenyl]ethanesulfonamide] |
| 3.3 | 1.1 | Cn1cc(-c2cc(S(C)(=O)=O)ccc2Oc2cccc(NCc3ccc4c(c3)OCCO4)c2)c2cc[nH]c2c1=O [Example 76, 4-[2-{3-[(2,3-dihydro-1,4-benzodioxin-6-ylmethyl)amino]phenoxy}-5-(methylsulfonyl)phenyl]-6-methyl-1,6-dihydro-7H-pyrrolo[2,3-c]pyridin-7-one] |
| 72 | 8.3 | CCS(=O)(=O)Nc1cc(-c2cn(C)c(=O)c3[nH]ccc23)c(Oc2ccc(F)cc2F)cc1C(=O)N(C)C [Example 10, 5-(2,4-difluorophenoxy)-2-[(ethylsulfonyl)amino]-N,N-dimethyl-4-(6-methyl-7-oxo-6,7-dihydro-1H-pyrrolo[2,3-c]pyridin-4-yl)benzamide] |
| 3.4 | 1.2 | Cc1cccc(S(=O)(=O)Nc2cccc(Oc3ccc(S(C)(=O)=O)cc3-c3cn(C)c(=O)c4[nH]ccc34)c2)c1 [Example 50, 3-methyl-N-{3-[2-(6-methyl-7-oxo-6,7-dihydro-1H-pyrrolo[2,3-c]pyridin-4-yl)-4-(methylsulfonyl)phenoxy]phenyl}benzenesulfonamide] |
| 35 | 10 | Cn1cc(-c2cc(S(C)(=O)=O)ccc2Oc2cccc(NCCC3CCCC3)c2)c2cc[nH]c2c1=O [Example 81, 4-[2-{3-[(2-cyclopentylethyl)amino]phenoxy}-5-(methylsulfonyl)phenyl]-6-methyl-1,6-dihydro-7H-pyrrolo[2,3-c]pyridin-7-one] |
| 4.9 | 23 | COc1cc(CN2CCC(Nc3ccc(S(C)(=O)=O)cc3-c3cn(C)c(=O)c4[nH]ccc34)CC2)cc(OC)c1OC [Example 88, 6-methyl-4-[5-(methylsulfonyl)-2-{[1-(3,4,5-trimethoxybenzyl)piperidin-4-yl]amino}phenyl]-1,6-dihydro-7H-pyrrolo[2,3-c]pyridin-7-one] |
| 88.3 | 10.1 | CCS(=O)(=O)c1ccc(Oc2c(C)cccc2Cl)c(-c2cn(C)c(=O)c3[nH]c(C(=O)NCC(=O)NC)cc23)c1 [Example 124, 4-[2-(2-chloro-6-methylphenoxy)-5-(ethylsulfonyl)phenyl]-6-methyl-N-[2-(methylamino)-2-oxoethyl]-7-oxo-6,7-dihydro-1H-pyrrolo[2,3-c]pyridine-2-carboxamide] |
| 4.1 | 1.6 | Cn1cc(-c2cc(S(C)(=O)=O)ccc2Oc2cccc(NCc3cccc(OC(F)(F)F)c3)c2)c2cc[nH]c2c1=O [Example 69, 6-methyl-4-[5-(methylsulfonyl)-2-(3-{[3-(trifluoromethoxy)benzyl]amino}phenoxy)phenyl]-1,6-dihydro-7H-pyrrolo[2,3-c]pyridin-7-one] |
| 8 | 60 | CN(C)CC(=O)N1CCC(Nc2ccc(S(C)(=O)=O)cc2-c2cn(C)c(=O)c3[nH]ccc23)CC1 [Example 85, 4-[2-({1-[(dimethylamino)acetyl]piperidin-4-yl}amino)-5-(methylsulfonyl)phenyl]-6-methyl-1,6-dihydro-7H-pyrrolo[2,3-c]pyridin-7-one] |

From US9957263B2, “Bromodomain inhibitors” (AbbVie Inc., priority 2013, dated 2018)
